Laboratory results as given in EP3153515A1, “COMPOUNDS FOR INHIBITING HEPATITIS C VIRUS, PHARMACEUTICAL COMPOSITIONS AND USES THEREOF” (priority 2014, dated 2015).
pEC50: −log10 of the molar value.

system: HCV NS5A replicon GT-1a; assay: HCV NS5A replicon anti-viral activity (EC50), dual-reporter Renilla luciferase, GT-1a; format: cell-based; conditions: Hepatitis C virus, GT1A; GT-1a replicon; read-out: NS5A Inhibitory Activity (EC50 of GT-1a subtype inhibition)
From the text: The autonomous replication level of HCV in liver cells in vitro is very low, and the only animal that can be infected by HCV is chimpanzee, therefore there is no appropriate animal model currently available for preclinical pharmacodynamic study. Some researchers have transplanted human liver tissue infected with HCV in vitro into immune deficient mice to establish an in vivo mice model, but these mice are hard to raise and the model is unstable and short of normal immunologic reaction. Moreover, the model has significant difference with the pathogenic process of hepatitis C, therefore, it has not been used for animal model to assess the action of anti-HCV medicine yet. The progress of the development of anti-viral drugs for the treatment of HCV infection had been very slow because the pathogenic mechanism and life cycle of HCV were unclear before 1999 due to the lack of cell culture system for effective multiplication of HCV. But researchers managed to achieve a breakthrough in 1999 after numerous attempts. An effective cell culture model-replicon system in which HCV is capable of autonomous replication in transfected human hepatic carcinoma cell line Huh-7 had been established in that year on the basis of subgenomic HCV RNA built with genetic engineering.
The above-mentioned cell culture model-replicon system which has been widely accepted in the industry is used in this invention for ex vivo experiments and subsequent assessment of drugs based on the experiment results.
The therapeutic effect of the compounds of this invention on HCV infection can be preliminarily assessed through the following preclinical in vitro inhibitory action test and can be further confirmed in clinical trials. Other methods used in the invention are also quite familiar to professionals in this field with ordinary technical knowledge. Method for testing the anti-viral activity(EC50) in HCV NS5A replicon system: • The viral replication level in infected cells was determined by testing Renilla luciferase with the newly established dual-reporter gene replicon system. There was a good linear relation between the expression level of the reporter gene and the HCV RNA replication level and viral protein expression level. The anti-viral activity was determined for 3 replicates in 3 replicate cells at five(5) 1:2 diluted concentration gradients, with 1 to 2 positive controls. The EC50 of the compounds was calculated in the end.
The compounds of the invention, or their stereoisomers, tautomers, esterified or amidated prodrugs, or pharmaceutically acceptable salts and mixtures have been subjected to test to determined their therapeutic effects in the treatment of HCV infection. […] Moreover, the results of 6a-6ep(Ia), 6fa-6gq(Ib) and reference compounds Ref-1(BMS-790052), Ref-2(GS5885), Ref-3 in HCV-NS5 inhibition test reveal that the cyclopentanyl/hexamethyleneamino radical containing linear polypeptide compounds 6a-6ep, 6fa-6gq and reference compounds Ref-1, Ref-2, Ref-3 have good HCV inhibitory results. […] The replicons GT-1a, GT-lb, GT-2a, GT-3a, GT-4a, GT-5a and GT-6a used for the test are routine replicons commercially available in this field. Table 1: HCV NS5A replicon inhibitory activity test results of compounds (6a-6gq) of the invention

SMILES	pEC50
COC(=O)N[C@H](C(=O)N1CCC[C@H]1c1nc(-c2ccc(-c3ccc(-c4c[nH]c([C@@H]5C[C@H](Oc6nc7ccccc7nc6-c6cccs6)CN5C(=O)[C@@H](NC(=O)OC)C(C)C)n4)cc3)cc2)c[nH]1)C(C)C [6x]	9.00 to 12.00
COC(=O)NC(C(=O)N1CC=C[C@H]1c1ncc(-c2ccc(-c3cc4sc(-c5cnc([C@@H]6CCCN6C(=O)[C@@H](NC(=O)OC)C(C)C)[nH]5)cc4s3)cc2)[nH]1)c1ccccc1 (stereo partly drawn) [6cb]	< 7.30
COC(=O)NC(C(=O)N1CCC[C@H]1c1nc(-c2ccc(-c3ccc(-c4c[nH]c([C@@H]5C=CCN5C(=O)[C@@H](NC(=O)OC)C(C)C)n4)cc3)cc2)c[nH]1)c1ccccc1 (stereo partly drawn) [6by]	9.00 to 12.00
COC(=O)N[C@H](C(=O)N1CC=C[C@H]1c1nc2ccc(-c3csc4c(-c5ccc(-c6cnc([C@@H]7CCCN7C(=O)[C@@H](NC(=O)OC)C(C)C)[nH]6)cc5)csc34)cc2[nH]1)C(C)C [6fz]	9.00 to 12.00
CNC(=O)N[C@@H](C(=O)N1CCC[C@H]1c1ncc(-c2ccc(-c3ccc(-c4cnc([C@@H]5C=CCN5C(=O)[C@@H](NC(=O)OC)C(C)C)[nH]4)cc3)cc2)[nH]1)c1ccccc1 [6dg]	9.00 to 12.00
COC(=O)N[C@H](C(=O)N1CCC[C@H]1c1ncc(-c2ccc(-c3ccc(-c4cnc([C@@H]5CNCN5C(=O)[C@@H](NC(=O)OC)C(C)C)[nH]4)cc3)cc2)[nH]1)C(C)C [6cu]	9.00 to 12.00
CC(C)[C@H](NC(=O)N(C)C)C(=O)N1CC=C[C@H]1c1ncc(-c2ccc(-c3ccc(-c4cnc([C@@H]5CCCN5C(=O)[C@@H](NC(=O)N(C)C)C(C)C)[nH]4)cc3)cc2)[nH]1 [6cg]	9.00 to 12.00
COC(=O)N[C@H](C(=O)N1CCC[C@H]1c1nc2ccc(-c3csc4c(-c5ccc(-c6ccc7nc([C@@H]8C=CCN8C(=O)[C@H](NC(=O)OC)c8ccccc8)[nH]c7c6)cc5)csc34)cc2[nH]1)C(C)C [6gq]	9.00 to 12.00
CC(C)[C@H](NC(=O)OC1CCCC1)C(=O)N1CC=C[C@H]1c1nc(-c2ccc(-c3ccc(-c4cnc([C@@H]5C=CCN5C(=O)[C@@H](NC(=O)OC5CCCC5)C(C)C)[nH]4)cc3)cc2)c[nH]1 [6bf]	< 7.30
COC(=O)N[C@H](C(=O)N1CCC[C@H]1c1nc2ccc(-c3ccc(-c4ccc5nc([C@@H]6C=CCN6C(=O)[C@H](NC(=O)OC)c6ccccc6)[nH]c5c4)c4c3CC3(CCCCC3)C4)cc2[nH]1)C(C)C [6ep]	7.30 to 9.00
COC(=O)N[C@H](C(=O)N1CC=C[C@H]1c1nc2ccc(-c3ccc(-c4ccc5nc([C@@H]6CCCN6C(=O)[C@@H](NC(=O)OC)C(C)C)[nH]c5c4)c4c3CC3(CCCCC3)C4)cc2[nH]1)C(C)C [6en]	7.30 to 9.00
COC(=O)N[C@H](C(=O)N1CCCC[C@H]1c1nc(-c2ccc(-c3ccc(-c4c[nH]c([C@@H]5C[C@H](OC(=O)N6Cc7cc8c(cc7C6)OCO8)CN5C(=O)[C@@H](NC(=O)OC)C(C)C)n4)cc3)cc2)c[nH]1)C(C)C [6ac]	9.00 to 12.00
COC(=O)N[C@H](C(=O)N1CC=C[C@H]1c1ncc(-c2ccc(-c3cccc4c(-c5cnc([C@@H]6CCCN6C(=O)[C@@H](NC(=O)OC)C(C)C)[nH]5)cccc34)cc2)[nH]1)C(C)C [6ef]	9.00 to 12.00
COC(=O)NC(C(=O)N1CC=C[C@H]1c1ncc(-c2ccc(-c3ccc(-c4cnc([C@@H]5C=CCN5C(=O)C(NC(=O)OC)c5ccccc5)[nH]4)cc3)cc2)[nH]1)c1ccccc1 (stereo partly drawn) [6ca]	9.00 to 12.00
COC(=O)N[C@H](C(=O)N1CC=C[C@H]1c1ncc(-c2ccc(-c3cc4sc(-c5cnc([C@@H]6CCCN6C(=O)[C@H](NC(=O)OC)c6ccccc6)[nH]5)cc4o3)cc2)[nH]1)C(C)C [6fq]	9.00 to 12.00
COC(=O)N[C@H](C(=O)N1CC=C[C@H]1c1nc2ccc(-c3csc4c(-c5cnc([C@@H]6CCCN6C(=O)[C@@H](NC(=O)OC)C(C)C)[nH]5)csc34)cc2[nH]1)C(C)C [6gm]	9.00 to 12.00
COC(=O)N[C@H](C(=O)N1CCC[C@H]1c1ncc(-c2ccc(-c3ccc(-c4cnc([C@@H]5C=CCN5C(=O)[C@@H](NC(=O)OC)C5CCCCC5)[nH]4)cc3)cc2)[nH]1)C(C)C [6di]	9.00 to 12.00

SMILES	pEC50
COC(=O)N[C@H](C(=O)N1CC=C[C@H]1c1nc2ccc(-c3csc4c(-c5cnc([C@@H]6CCCN6C(=O)[C@H](NC(=O)OC)c6ccccc6)[nH]5)csc34)cc2[nH]1)C(C)C [6gn]	9.00 to 12.00
CNC(=O)NC(C(=O)N1CC=C[C@H]1c1ncc(-c2ccc(-c3ccc(-c4cnc([C@@H]5CCCN5C(=O)C(NC(=O)NC)c5ccccc5)[nH]4)cc3)cc2)[nH]1)c1ccccc1 (stereo partly drawn) [6cf]	9.00 to 12.00
CN(C)C(=O)NC(C(=O)N1CC=C[C@H]1c1ncc(-c2ccc(-c3ccc(-c4cnc([C@@H]5CCCN5C(=O)C(NC(=O)N(C)C)c5ccccc5)[nH]4)cc3)cc2)[nH]1)c1ccccc1 (stereo partly drawn) [6ce]	9.00 to 12.00
COC(=O)N[C@H](C(=O)N1CCC[C@H]1c1nc(-c2ccc(-c3ccc(-c4cnc([C@@H]5C[C@@H](OC(=O)N6Cc7ccc8c(c7C6)OCO8)CN5C(=O)[C@@H](NC(=O)OC)C(C)C)[nH]4)cc3)cc2)c[nH]1)C(C)C [6a]	9.00 to 12.00
COC(=O)N[C@H](C(=O)N1CC=C[C@H]1c1ncc(-c2ccc(-c3ccc(-c4cnc([C@@H]5CN(C(=O)OC(C)C)CN5C(=O)[C@@H](NC(=O)OC)C(C)C)[nH]4)cc3)cc2)[nH]1)C(C)C [6dc]	9.00 to 12.00
COC(=O)N[C@H](C(=O)N1CCC[C@H]1c1ncc(-c2csc3c(-c4ccc5nc([C@@H]6C=CCN6C(=O)[C@H](NC(=O)OC)c6ccccc6)[nH]c5c4)csc23)[nH]1)C(C)C [6gj]	9.00 to 12.00
COC(=O)N[C@H](C(=O)N1CC=C[C@H]1c1ncc(-c2ccc(-c3ccc(-c4cnc([C@@H]5CC(O)CN5C(=O)[C@@H](NC(=O)OC)C(C)C)[nH]4)cc3)cc2)[nH]1)C(C)C (stereo partly drawn) [6dq]	9.00 to 12.00
COC(=O)N[C@H](C(=O)N1CC=C[C@H]1c1ncc(-c2ccc(-c3ccc(-c4cnc([C@@H]5CN(S(=O)(=O)C(C)C)CN5C(=O)[C@@H](NC(=O)OC)C(C)C)[nH]4)cc3)cc2)[nH]1)C(C)C [6dd]	9.00 to 12.00
COC(=O)N[C@H](C(=O)N1CCC[C@H]1c1ncc(-c2ccc(-c3csc4c(-c5ccc6nc([C@@H]7C=CCN7C(=O)[C@H](NC(=O)OC)c7ccccc7)[nH]c6c5)csc34)cc2)[nH]1)C(C)C [6ga]	9.00 to 12.00
COC(=O)N[C@H](C(=O)N1CC=C[C@H]1c1ncc(-c2ccc3c(c2)OC(c2ccccc2)n2c-3cc3cc(-c4cnc([C@@H]5CCCN5C(=O)[C@@H](NC(=O)OC)C(C)C)[nH]4)ccc32)[nH]1)C(C)C (stereo partly drawn) [6ej]	9.00 to 12.00
COC(=O)N[C@@H](C(=O)N1CC=C[C@H]1c1nc2ccc(-c3csc4c(-c5cnc([C@@H]6CCCN6C(=O)[C@H](NC(=O)OC)c6ccccc6)[nH]5)csc34)cc2[nH]1)c1ccccc1 [6gk]	9.00 to 12.00
COC(=O)N[C@@H](C(=O)N1CCC[C@H]1c1ncc(-c2ccc(-c3cc4sc(-c5cnc([C@@H]6CCCN6C(=O)[C@H](NC(=O)OC)c6ccccc6)[nH]5)cc4s3)cc2)[nH]1)c1ccccc1 [Ref-3, reference compound]	9.00 to 12.00
CNC(=O)N[C@H](C(=O)N1CC=C[C@H]1c1ncc(-c2ccc(-c3ccc(-c4cnc([C@@H]5CCCN5C(=O)[C@@H](NC(=O)NC)C(C)C)[nH]4)cc3)cc2)[nH]1)C(C)C [6ch]	9.00 to 12.00
COC(=O)N[C@H](C(=O)N1CCC[C@H]1c1ncc(-c2cc3oc(-c4ccc(-c5cnc([C@@H]6C=CCN6C(=O)[C@H](NC(=O)OC)c6ccccc6)[nH]5)cc4)cc3s2)[nH]1)C(C)C [6fp]	9.00 to 12.00
COC(=O)N[C@H](C(=O)N1CC=C[C@H]1c1nc(-c2ccc(-c3ccc(-c4c[nH]c([C@@H]5CCCN5C(=O)C5(NC(=O)OC)CC5)n4)cc3)cc2)c[nH]1)C(C)C [6bh]	9.00 to 12.00
COC(=O)N[C@H](C(=O)N1CCCC[C@H]1c1nc(-c2ccc(-c3ccc(-c4c[nH]c([C@@H]5COCCN5C(=O)[C@@H](NC(=O)OC)C(C)C)n4)cc3)cc2)c[nH]1)C(C)C [6aj]	9.00 to 12.00

same assay, conditions: Hepatitis C virus, genotype 1a / genotype 6a, read-out: Inhibitory activity against various HCV-NS5A subtypes(EC50, GT-1a to GT-6a) GT-1a

SMILES	pEC50
COC(=O)N[C@H](C(=O)N1CC=C[C@H]1c1nc2ccc(-c3csc4c(-c5ccc(-c6cnc([C@@H]7CCCN7C(=O)[C@@H](NC(=O)OC)C(C)C)[nH]6)cc5)csc34)cc2[nH]1)C(C)C [6fz]	11.15
COC(=O)N[C@@H](C(=O)N1CCC[C@H]1c1ncc(-c2ccc(-c3cc4sc(-c5cnc([C@@H]6CCCN6C(=O)[C@H](NC(=O)OC)c6ccccc6)[nH]5)cc4s3)cc2)[nH]1)c1ccccc1 [Ref-3, reference compound]	10.29

same assay, conditions: comparison drawn from Table 2

SMILES	inhibitory activity compared with Ref-1(BMS-790052), Ref-2(GS5885), Ref-3 and Ref-4 (in words)
COC(=O)N[C@H](C(=O)N1CC=C[C@H]1c1nc2ccc(-c3csc4c(-c5ccc(-c6cnc([C@@H]7CCCN7C(=O)[C@@H](NC(=O)OC)C(C)C)[nH]6)cc5)csc34)cc2[nH]1)C(C)C [6fz]	significantly superior
